Measurements published in US20260325605A1, “INHIBITORS” (Zealand Pharma A/S, priority 2022, published 2026).
Where two headings read alike, the source gives them in different places.

How the values were obtained:
[1] = biological target: T1, Kv1.3 (Homo sapiens, UniProt P22001); test: Patch clamp assay (QPatch), Kv1.3; assay type: cell-based; conditions: CHO cells stably expressing human Kv1.3, read-out: Potency IC50, Kv1.3
T1 construct: expressed in transfected cells

[2] = tested on: T-cell activation in human whole blood; test: Example 5: IFN-g, IL-2 and IL-17A release in thapsigargin stimulated human whole blood; assay type: cell-based; conditions: 24 Hr, at least 2 replicate experiments
Source text: Human whole blood was used to assess the potency of Kv1.3 inhibitor peptides on T-cell activation as determined by release of the cytokines IFN-g, IL-2 and IL-17A after stimulation with thapsigargin. Addition of thapsigargin activates a signalling cascade resulting in T cell proliferation and cytokine production, in which the Kv1.3 ion channel plays a key role. Activity of Kv1.3 inhibitors in human primary T cells can thus be measured in this experimental system.
Human whole blood was obtained from healthy blood donors and was collected after informed consent using Sodium Heparin blood sampling tubes (Becton, Dickinson and Company (BD), Cat #367876). Test peptides were diluted to 4× final testing concentrations in assay buffer (Dulbecco's Modified Eagle's medium (DMEM) with high glucose and GlutaMAX (3.97 mM L-alanine-L-glutamine) (Gibco Cat #61965026) supplemented with 25 mM HEPES buffer, 1 mM Sodium Pyruvate, 100 units/ml Penicillin, 100 μg/ml Streptomycin and 0.05% Casein from bovine milk (Sigma-Aldrich Cat #C4765)) and 25 μl was added to wells of a 96 well tissue culture plate. Then 50 μl human whole blood was added and incubated for minimum 5 minutes at room temperature to allow compound binding. Then 25 μl of 40 μM thapsigargin diluted in assay buffer was added to all wells of the assay plates to activate the cells, followed by incubation for 24 Hr at 37° C./5% CO2 in a humidified box. The assay plates were centrifuged for 10 min at 300 g at 4° C. and the supernatants were transferred to new plates. The concentrations of IFN-g, IL-2 and IL-17A released to the supernatants were measured using a tri-plex human cytokine detection kit (MSD Human U-Plex IFN-g, IL-2 and IL-17A kit; Meso Scale Discovery Cat #K15067L-2) and all three cytokines were measured using a MSD MESO QuickPlex SQ 120 instrument as described by the manufacturer (Meso Scale Discovery, Rockville, Maryland, USA).
To determine the potency of inhibition for the compounds, the cytokine concentration data were fitted using a three parameter logistic dose response model based on the formula Y=Bottom+(Top−Bottom)/(1+IC50/X), where Y is measured cytokine concentrations, X is compound concentrations and Top, bottom and IC50 are parameters fitted using the software Graphpad Prism version 5.04. The IC50 value calculated from the concentration response curve represents the compound concentration that gives an inhibition response halfway between the basal (Bottom) response and the maximal (Top) response.
All values are derived from at least 2 replicate experiments. All of the tested Kv1.3 blockers were able to inhibit cytokine production from human T cells present in human whole blood that was stimulated with thapsigargin.

T1 sequence (P22001 whole entry): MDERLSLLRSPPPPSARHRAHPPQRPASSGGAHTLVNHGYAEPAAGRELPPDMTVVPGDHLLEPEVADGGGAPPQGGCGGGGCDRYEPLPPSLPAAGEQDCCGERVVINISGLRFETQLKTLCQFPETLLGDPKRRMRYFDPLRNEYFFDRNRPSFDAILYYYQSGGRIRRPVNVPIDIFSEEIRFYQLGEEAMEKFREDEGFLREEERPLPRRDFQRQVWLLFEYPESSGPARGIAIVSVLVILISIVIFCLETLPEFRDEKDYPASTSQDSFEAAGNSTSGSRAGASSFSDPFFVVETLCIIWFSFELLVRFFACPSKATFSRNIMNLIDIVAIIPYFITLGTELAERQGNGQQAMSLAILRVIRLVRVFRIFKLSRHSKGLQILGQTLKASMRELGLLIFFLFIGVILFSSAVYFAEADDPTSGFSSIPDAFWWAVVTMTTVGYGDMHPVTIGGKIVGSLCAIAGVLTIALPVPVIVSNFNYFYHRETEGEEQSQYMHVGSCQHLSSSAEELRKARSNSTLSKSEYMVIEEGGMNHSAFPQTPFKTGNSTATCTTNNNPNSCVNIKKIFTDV

## H-P[Nle]E[Nle]RC(1)SASVEC(2)KQKC(3)LAAIGSIFGKC(1)[Nle]NKKC(2)KC(3)YPR-OH [Peptide 100]
[1]
  IC50: 0.33 nM
[2]; read-out: Average IC50, IFN-g
  IC50: 0.11 nM
[2]; read-out: Average IC50, IL-2
  IC50: 0.095 nM
[2]; read-out: Average IC50, IL-17A
  IC50: 0.15 nM
